Reference: patent US8153631B2, “Triazole compounds and uses related thereto” (Amgen Inc., priority 2003, dated 2012)

Biological target: T1, human HSD1 (recombinant HSD1) (Homo sapiens, UniProt P28845)
T1 construct: made in house
Assay: In vitro HSD1 activity inhibitory action, SPA of cortisone to cortisol conversion
Format: biochemical
Conditions: recombinant human HSD1 0.1 μg/ml, 500 μM NADPH, 16 nM 3H cortisone, room temperature 90 min, read-out: hHSD1 IC50
Description: In Vitro HSD1 (Hydroxysteroid Dehydrogenase 1) Activity Inhibitory Action
The HSD1 inhibitory activity was examined by quantitative determination by an SPA (scintillation proximity assay) system of the suppressive action on the conversion from cortisone to cortisol using human HSD1 (hereinafter recombinant HSD1) expressed using a baculo-virus system as an enzyme source. For the reaction, a reagent was added to a 96 well plate (96 well Opti-plates™-96 (Packard)) to the following final concentration and a volume of 100 μl was reacted at room temperature for 90 min. The reaction solution used was 0.1 μg/ml recombinant HSD1, 500 μM NADPH, 16 nM ^3H cortisone (Amersham Biosciences, 1.78 Tbq/mol) dissolved in 0.1% BSA (Sigma)-containing PBS and the test drug was 2 μl of a compound solution (dissolved in DMSO). After 90 min, the reaction was stopped by adding PBS (40 μl, containing 0.1% BSA (Sigma)) containing 0.08 μg of anti-cortisol mouse monoclonal antibody (East Coast Biologics), 365 μg SPA PVT mouse antibody-binding beads (Amersham Biosciences) and 175 μM carbenoxolone (Sigma) to the reaction solution. After the completion of the reaction, the plate was incubated overnight at room temperature and the radioactivity was measured by Topcount (Packard). For control, the value (0% inhibition) of the well containing 2 μl of DMSO instead of the test drug was used, and for positive control, the value (100% inhibition) of the well containing carbenoxolone instead of the test drug at the final concentration of 50 μM was used. The inhibition (%) of the test drug was calculated by ((value of control−value of test drug)/(value of control−value of positive control))×100 (%). The IC50 value was analyzed using a computer-based curve fitting soft.

T1 sequence (P28845 whole entry): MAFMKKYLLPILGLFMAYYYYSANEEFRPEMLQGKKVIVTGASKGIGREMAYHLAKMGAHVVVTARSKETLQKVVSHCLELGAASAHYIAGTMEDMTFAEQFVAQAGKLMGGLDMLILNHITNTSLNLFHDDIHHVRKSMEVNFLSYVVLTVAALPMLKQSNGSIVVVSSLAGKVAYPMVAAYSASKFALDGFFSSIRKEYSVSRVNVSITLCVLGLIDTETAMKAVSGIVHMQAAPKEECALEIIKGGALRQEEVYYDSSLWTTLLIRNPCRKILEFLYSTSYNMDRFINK

SMILES	IC50 [nM]
Cn1c(-c2ccc(N3CCNC3=O)cc2Cl)nnc1C1(c2ccccc2)CC1 [Ex. 1-39]	< 10
COC1CCN(C(=O)Nc2ccc(-c3nnc(C4(c5ccccc5)CC4)n3C)c(Cl)c2)CC1 [Ex. 1-40]	10 to 1000
Cn1c(-c2ccc(NC(=O)N3CCCC(O)C3)cc2Cl)nnc1C1(c2ccccc2)CC1 (stereo not shown) [Ex. 1-41]	10 to 1000
Cn1c(-c2ccc(NC(=O)N3CCC(O)CC3)cc2Cl)nnc1C1(c2ccccc2)CC1 [Ex. 1-42]	10 to 1000
Cn1c(-c2ccc(NC(=O)CN3CCC(O)CC3)cc2Cl)nnc1C1(c2ccccc2)CC1 [Ex. 1-43]	10 to 1000
Cn1c(-c2ccc(NC(=O)CN3CCCC(O)C3)cc2Cl)nnc1C1(c2ccccc2)CC1 (stereo not shown) [Ex. 1-44]	10 to 1000
COC1CCN(CC(=O)Nc2ccc(-c3nnc(C4(c5ccccc5)CC4)n3C)c(Cl)c2)CC1 [Ex. 1-45]	10 to 1000
Cn1c(-c2ccc(N3CCOCC3)cc2)nnc1C1(c2ccccc2)CC1 [Ex. 1-46]	10 to 1000
CC(=O)Nc1ccc(-c2nnc(C3(c4ccc(F)cc4)CC3)n2C)c(Cl)c1 [Ex. 1-47]	< 10
Cn1c(-c2ccc(N3CCNCC3)cc2Cl)nnc1C1(c2ccccc2)CC1 [Ex. 1-48]	10 to 1000
CC(=O)N1CCN(c2ccc(-c3nnc(C4(c5ccccc5)CC4)n3C)c(Cl)c2)CC1 [Ex. 1-49]	< 10
Cn1c(-c2ccc(N3CCN(S(C)(=O)=O)CC3)cc2Cl)nnc1C1(c2ccccc2)CC1 [Ex. 1-50]	< 10
CC(C)C(=O)N1CCN(c2ccc(-c3nnc(C4(c5ccccc5)CC4)n3C)c(Cl)c2)CC1 [Ex. 1-51]	< 10
Cn1c(-c2ccc(N3CCCCC3)cc2Cl)nnc1C1(c2ccccc2)CC1 [Ex. 1-53]	< 10
Cn1c(-c2ccc(N3CCC(O)CC3)cc2Cl)nnc1C1(c2ccccc2)CC1 [Ex. 1-54]	< 10
Cn1c(-c2ccc(N3CCOCC3)cc2Cl)nnc1C1(c2ccc(F)cc2)CC1 [Ex. 1-55]	< 10
CC1CCN(c2ccc(-c3nnc(C4(c5ccccc5)CC4)n3C)c(Cl)c2)CC1 [Ex. 1-56]	< 10
Cn1c(-c2ccc(N3CCCC3)cc2Cl)nnc1C1(c2ccccc2)CC1 [Ex. 1-57]	< 10
COC(=O)C1CCN(c2ccc(-c3nnc(C4(c5ccccc5)CC4)n3C)c(Cl)c2)CC1 [Ex. 1-58]	< 10
Cn1c(-c2ccc(N3CCC(C(=O)O)CC3)cc2Cl)nnc1C1(c2ccccc2)CC1 [Ex. 1-59]	10 to 1000
CNC(=O)C1CCN(c2ccc(-c3nnc(C4(c5ccccc5)CC4)n3C)c(Cl)c2)CC1 [Ex. 1-60]	< 10
Cn1c(-c2ccc(N3CCC4(CC3)OCCO4)cc2Cl)nnc1C1(c2ccccc2)CC1 [Ex. 1-61]	10 to 1000

SMILES	IC50 [nM]
COCCOC(=O)C1CCN(c2ccc(-c3nnc(C4(c5ccccc5)CC4)n3C)c(Cl)c2)CC1 [Ex. 1-62]	< 10
Cn1c(-c2ccc(N3CCC(NC(=O)OC(C)(C)C)CC3)cc2Cl)nnc1C1(c2ccccc2)CC1 [Ex. 1-63]	< 10
Cn1c(-c2ccc(N3CCC(N)CC3)cc2Cl)nnc1C1(c2ccccc2)CC1 [Ex. 1-64]	10 to 1000
Cn1c(-c2ccc(N3CCCC(O)C3)cc2Cl)nnc1C1(c2ccccc2)CC1 (stereo not shown) [Ex. 1-66]	< 10
COc1ccc(COc2ccc(-c3nnc(C4(c5ccccc5)CC4)n3C)c(Cl)c2)cc1 [Ex. 1-67]	< 10
Cn1c(-c2ccc(O)cc2Cl)nnc1C1(c2ccccc2)CC1 [Ex. 1-68]	< 10
Cn1c(-c2ccc(OCC(N)=O)cc2Cl)nnc1C1(c2ccccc2)CC1 [Ex. 1-69]	< 10
COC(=O)c1ccc(-c2nnc(C3(c4ccccc4)CC3)n2C)c(Cl)c1 [Ex. 1-70]	< 10
Cn1c(-c2ccc(S(C)(=O)=O)cc2Cl)nnc1C1(c2ccccc2)CC1 [Ex. 1-71]	< 10
Cn1c(-c2ccc(C(=O)O)cc2Cl)nnc1C1(c2ccccc2)CC1 [Ex. 1-72]	10 to 1000
Cn1c(-c2ccc(C(N)=O)cc2Cl)nnc1C1(c2ccccc2)CC1 [Ex. 1-73]	< 10
Cn1c(-c2ccc(C(=O)N3CCOCC3)cc2Cl)nnc1C1(c2ccccc2)CC1 [Ex. 1-74]	10 to 1000
CNC(=O)c1ccc(-c2nnc(C3(c4ccccc4)CC3)n2C)c(Cl)c1 [Ex. 1-75]	< 10
COc1ccc(-c2nnc(C3(c4ccccc4)CC3)n2C)c(Cl)c1 [Ex. 1-76]	< 10
CN(C)C(=O)c1ccc(-c2nnc(C3(c4ccccc4)CC3)n2C)c(Cl)c1 [Ex. 1-77]	10 to 1000
Cn1c(-c2ccc(C(=O)NCCO)cc2Cl)nnc1C1(c2ccccc2)CC1 [Ex. 1-78]	10 to 1000
CC(C)NC(=O)c1ccc(-c2nnc(C3(c4ccccc4)CC3)n2C)c(Cl)c1 [Ex. 1-79]	10 to 1000
Cn1c(-c2ccc(C(=O)N3CCCCC3)cc2Cl)nnc1C1(c2ccccc2)CC1 [Ex. 1-80]	10 to 1000
Cn1c(-c2ccc(C(=O)N3CCC(O)CC3)cc2Cl)nnc1C1(c2ccccc2)CC1 [Ex. 1-81]	10 to 1000
Cn1c(-c2ccc(C(=O)NCC(N)=O)cc2Cl)nnc1C1(c2ccccc2)CC1 [Ex. 1-82]	< 10
Cn1c(-c2ccc(C(=O)NCC(F)(F)F)cc2Cl)nnc1C1(c2ccccc2)CC1 [Ex. 1-83]	10 to 1000
CC(=O)NCCNC(=O)c1ccc(-c2nnc(C3(c4ccccc4)CC3)n2C)c(Cl)c1 [Ex. 1-84]	10 to 1000

SMILES	IC50 [nM]
COCCNC(=O)c1ccc(-c2nnc(C3(c4ccccc4)CC3)n2C)c(Cl)c1 [Ex. 1-85]	10 to 1000
CN(C)CCNC(=O)c1ccc(-c2nnc(C3(c4ccccc4)CC3)n2C)c(Cl)c1 [Ex. 1-87]	10 to 1000
Cn1c(-c2ccc(C(=O)NCCN3CCOCC3)cc2Cl)nnc1C1(c2ccccc2)CC1 [Ex. 1-88]	10 to 1000
CN(C)c1ccc(-c2nnc(C3(c4ccccc4)CC3)n2C)c(Cl)c1 [Ex. 1-89]	< 10
Cn1c(-c2ccc(N3CCOCC3)cc2Cl)nnc1C1(c2ccccc2)CC1 [Ex. 1-90]	< 10
COc1cc(Cl)ccc1-c1nnc(C2(c3ccccc3)CC2)n1C [Ex. 1-91]	< 10
Cn1c(-c2ccc(F)cc2Cl)nnc1C1(c2ccccc2)CC1 [Ex. 1-92]	< 10
Cn1c(-c2ccc(Cl)cc2[N+](=O)[O-])nnc1C1(c2ccccc2)CC1 [Ex. 1-93]	< 10
Cn1c(-c2ccc(Cl)cc2N)nnc1C1(c2ccccc2)CC1 [Ex. 1-94]	10 to 1000
Cn1c(-c2ccc(Cl)cc2F)nnc1C1(c2ccccc2)CC1 [Ex. 1-95]	< 10
Cn1c(-c2ccncc2Cl)nnc1C1(c2ccccc2)CC1 [Ex. 1-96]	< 10
Cn1c(-c2ccc(Cl)nc2Cl)nnc1C1(c2ccccc2)CC1 [Ex. 1-97]	10 to 1000
Cn1c(-c2ccccn2)nnc1C1(c2ccccc2)CC1 [Ex. 1-98]	10 to 1000
Cn1c(C2CCN(Cc3c(Cl)cccc3Cl)CC2)nnc1C1(c2ccccc2)CC1 [Ex. 1-99]	10 to 1000
Cn1c(-c2ccc(Br)cc2Cl)nnc1C1(c2ccccc2)CC1 [Ex. 1-100]	< 10
Cn1c(-c2ccccc2Cl)nnc1C1(c2ccccc2)CC1 [Ex. 1-101]	< 10
Cn1c(-c2ccc(C(C)(O)C(F)(F)F)cc2Cl)nnc1C1(c2ccccc2)CC1 (stereo not shown) [Ex. 1-102]	< 10
Cn1c(C2CCCCC2)nnc1C1(c2ccccc2)CC1 [Ex. 1-103]	< 10
COC(=O)[C@H]1CC[C@H](c2nnc(C3(c4ccccc4)CC3)n2C)CC1 [Ex. 1-104]	10 to 1000
Cn1c(C2(c3ccccc3)CC2)nnc1[C@H]1CC[C@H](CO)CC1 [Ex. 1-105]	< 10
